Experimental data taken from article PMC12333015, “Profiling the Impact of mGlu7/Elfn1 Protein Interactions on the Pharmacology of mGlu7 Allosteric Modulators” (ACS Chemical Neuroscience, 2025).

Tested on: pyramidal cell to SST-IN synapses in the prefrontal cortex
Test: Ex vivo whole-cell electrophysiology, eEPSCs recorded from SST-INs in prefrontal cortex slices
Type: cell-based, mouse
Details: 30 μM L-AP4 alone, bath applied
Excerpt: Shown in Figure A are representative traces of eEPSCs recorded from SST-INs in response to 5-pulse stimulation with baseline in black, illustrating the characteristic facilitating nature of pyramidal cell (PYR) to SST-IN synapses.
Transgenic mice (both male and female) expressing tdTomato fluorescent protein in SST-INs were used in this study. They were generated by crossing female homozygous SST-Cre (Sst^tm2.1(cre)Zjh/J, Stock #: 013044, Jackson Laboratories) with male homozygous Ai9 mice (B6;Cg-Gt(Rosa)-26Sor^tm9(CAG‑tdTomato)Hze/J, Stock #: 007909, Jackson Laboratories). All animals were group housed with food and water available ad libitum, kept under a 12 h light/dark cycle with lights on from 6:00 AM to 6:00 PM, and were used for experiments during the light phase. All of the experimental procedures were approved by the Vanderbilt University Animal Care and Use committee and followed the guidelines set forth by the Guide for the Care and Use of Laboratory Animals. […] Whole cell recordings were made from visually identified, fluorescence-labeled SST-INs in layer V of PFC slices under the upright microscope. […] Excitatory postsynaptic currents (EPSCs) were recorded from layer V SST-INs at a holding potential of −80 mV and evoked by electrical stimulation (100 μs duration, applied every 15 s) through a concentric bipolar stimulating electrode placed around 100–150 μm from the recorded cell. The holding potential of −80 mV under voltage clamp is closed to the calculated reversal potential of Cl^– and thus the EPSCs recorded in the present studies had minimal GABAA-mediated component. Electrical stimulation applied near the recorded cell in the cortex presumably activates the local neurons preferentially. […] Data were analyzed using Clampfit 10 (Molecular Devices), Excel (Microsoft), and Prism (GraphPad Software), and presented as mean ± SEM. […]

## N[C@@H](CCP(=O)(O)O)C(=O)O [L-AP4, L-2-amino-4-phosphonobutyric acid, reference compound]
  effect on eEPSC amplitude: reduced eEPSC amplitude
